In US4497802A, “N-Acyl glycopeptide derivatives” (Eli Lilly and Company, priority 1983, dated 1985):
Where two headings read alike, the source gives them in different places.

How the values were obtained:
[1] = system: Staphylococcus aureus S13E; type: cell-based; conditions: agar dilution
Staphylococcus aureus = test: ED50 in experimentally infected mice; type: in vivo; conditions: mice infected with Staphylococcus aureus; administered subcutaneously 1 and 4 hours postinfection
Streptococcus Group 9960 = test: MIC, standard agar-dilution assay; type: cell-based
[2] = system: Streptococcus pyogenes C203; test: MIC, standard agar-dilution assay; type: cell-based
[3] = system: Streptococcus Group D X66; test: MIC, standard agar-dilution assay; type: cell-based
[4] = system: Staphylococcus epidermidis EPI1; type: cell-based
[5] = system: Streptococcus pneumoniae Park I; type: cell-based; conditions: agar dilution
[6] = system: Staphylococcus aureus X1.1; test: MIC, standard agar-dilution assay; type: cell-based
[7] = system: Staphylococcus aureus V41; test: MIC, standard agar-dilution assay; type: cell-based
[8] = system: Staphylococcus aureus X400; test: MIC, standard agar-dilution assay; type: cell-based; conditions: Staphylococcus aureus X400, methicillin-resistant strain
[9] = system: Staphylococcus epidermidis EPI2; test: MIC, standard agar-dilution assay; type: cell-based
[10] = system: Haemophilus influenzae C.L.; test: MIC, standard agar-dilution assay; type: cell-based; conditions: ampicillin-sensitive strain
[11] = system: Haemophilus influenzae 76; test: MIC, standard agar-dilution assay; type: cell-based; conditions: Haemophilus influenzae 76, ampicillin-resistant strain
[12] = Streptococcus Group 9960, agar dilution
[13] = Streptococcus pyogenes C203, agar dilution
[14] = Streptococcus Group D X66, agar dilution
[15] = Staphylococcus epidermidis EPI1, agar dilution
[16] = Staphylococcus aureus X1.1, agar dilution
[17] = Staphylococcus aureus V41, penicillin-resistant strain, agar dilution

Substance | MIC [1] [µg/mL] | ED50 (Staphylococcus aureus) [mg/kg × 2] | MIC (Streptococcus Group 9960; [12]) [µg/mL] | MIC [2, 13] [µg/mL] | MIC [3, 14] [µg/mL] | MIC [4, 15] [µg/mL] | MIC [5] | MIC [6, 16] [µg/mL] | MIC [7, 17] [µg/mL] | MIC [8] [µg/mL] | MIC [9] [µg/mL] | MIC [10] | MIC [11] | MIC (Streptococcus Group 9960) [µg/mL] | MIC [2] [µg/mL] | MIC [3] [µg/mL] | MIC [4] [µg/mL] | MIC [6] [µg/mL] | MIC [7] [µg/mL]
N-(L-phenylalanyl)A35512B [Example 2] | 4 | 5.87 | 4 | 2 | 4 | 4 | 4 µg/mL | 4 | 4 | 8 | 8 |  |  |  |  |  |  |  | 
N--(3,5-dichlorobenzoyl)A35512B [Example 11] | 8 | 11.8 | 2 | 1 | 4 | 4 | 1 µg/mL | 8 | 4 | 8 | 16 | -- (Compound not active at less than 128 mcg/ml) | -- (Compound not active at less than 128 mcg/ml) |  |  |  |  |  | 
N--(11-aminoundecanoyl)A35512B [Example 7] | 4 | 4.5 | 4 | 2 | 4 | 8 | 4 µg/mL | 4 | 4 | 8 | 16 | -- (Compound not active at less than 128 mcg/ml) | -- (Compound not active at less than 128 mcg/ml) |  |  |  |  |  | 
N--(11-aminoundecanoyl)A35512B pseudoaglycone [Example 15] | 1 |  | 2 | 1 | 2 | 2 | -- (Compound not active at less than 128 mcg/ml) | 1 | 1 | 1 | 2 | -- (Compound not active at less than 128 mcg/ml) | -- (Compound not active at less than 128 mcg/ml) |  |  |  |  |  | 
N--(D-phenylglycyl)A35512B [Example 5] | 8 | 14.4 | 4 | 2 | 8 | 4 | 4 µg/mL | 4 | 4 | 8 | 8 |  |  |  |  |  |  |  | 
N--(L-phenylalanyl)A47934 [Example 24] | 0.06 | < 0.31 | 1 | 0.25 | 0.5 | 0.125 | 0.06 µg/mL | 0.06 | 0.06 | 0.25 | 0.25 | 4 µg/mL | 4 µg/mL |  |  |  |  |  | 
N--(nonanoyl)A35512B [Example 8] | 2 | 11.34 | 2 | 2 | 4 | 2 | 4 µg/mL | 2 | 2 | 2 | 4 |  |  |  |  |  |  |  | 
N--(nonanoyl)A35512B pseudoaglycone [Example 13] | 2 |  | 2 | 2 | 4 | 2 | 4 µg/mL | 2 | 2 | 2 | 4 | -- (Compound not active at less than 128 mcg/ml) | -- (Compound not active at less than 128 mcg/ml) |  |  |  |  |  | 
N--[(1-tetrazole)acetyl]A35512B [Example 10] | 4 | 5.7 | 8 | 2 | 8 | 4 | 4 µg/mL | 4 | 4 | 8 | 16 | -- (Compound not active at less than 128 mcg/ml) | -- (Compound not active at less than 128 mcg/ml) |  |  |  |  |  | 
N--[(3-sydnone)acetyl]A35512B [Example 12] | 8 | 10.97 |  |  |  |  | 2 µg/mL |  |  | 16 | 16 |  |  | 8 | 2 | 8 | 8 | 4 | 8
N--[N--(hexanoyl)-L-tryptophyl]A35512B [Example 3] | 4 | 10.84 | 2 | 1 | 4 | 8 | 1 µg/mL | 4 | 8 | 8 | 8 |  |  |  |  |  |  |  | 
N--[N--(t-Boc)--11-aminoundecanoyl)A35512B [Example 6] | 4 |  | 4 | 1 | 2 | 8 | 1 µg/mL | 2 | 4 | 4 | 8 |  |  |  |  |  |  |  | 
N--[N--(t-Boc)--11-aminoundecanoyl]A35512B pseudoaglycone [Example 14] | 8 |  | 8 | 4 | 4 | 4 | 4 µg/mL | 8 | 8 | 8 | 16 | -- (Compound not active at less than 128 mcg/ml) | -- (Compound not active at less than 128 mcg/ml) |  |  |  |  |  | 
N--[N--(t-Boc)--D-phenylglycyl]A35512B [Example 4] | 8 |  | 4 | 2 | 8 | 8 | 2 µg/mL | 4 | 8 | 16 | 16 | -- (Compound not active at less than 128 mcg/ml) | -- (Compound not active at less than 128 mcg/ml) |  |  |  |  |  | 
N--[N--(t-Boc)--L-phenylalanyl)A41030A [Example 16] | 0.25 |  | 0.125 | 0.5 | 1 | 0.25 | 0.5 µg/mL | 0.25 | 0.25 | 0.5 | 0.5 | 32 µg/mL | 32 µg/mL |  |  |  |  |  | 
N--[N--(t-Boc)--L-phenylalanyl)A47934 [Example 23] | 0.125 |  | 2 | 0.5 | 1 | 0.125 | 0.125 µg/mL | 0.125 | 0.125 | 0.25 | 0.5 | 8 µg/mL | 8 µg/mL |  |  |  |  |  | 
N--[p-(dodecyloxy)phenylpropanoyl]A35512B [Example 9] | 8 | 70 | 4 | 2 | 4 | 16 | 2 µg/mL | 4 | 8 | 8 | 16 |  |  |  |  |  |  |  | 
N-[N-(tert-butoxycarbonyl)-L-phenylalanyl]-A35512B [Example 1] | 8 |  | 2 | 1 | 4 | 8 | 2 µg/mL | 8 | 8 | 16 | 32 |  |  |  |  |  |  |  | 
